Assay results as given in patent US20260215418A1, “HYDROCARBON ALCOHOLS AND THEIR DERIVATIVES AS SYNERGISTS IN PESTICIDE ACTIVITY” (priority 2022, published 2026).
“And” between values parts separate entries of the source, which are not always exact repeats. Equal entries are not always repeated. Where two headings read alike, the source gives them in different places.

What was measured:
Blatta orientalis = details: for synergizing effect on Cypermethrin / Mortality %/time (h) (application): Blatta orientalis; for synergizing effect on Cypermethrin: synergist applied with Cypermethrin; for Mortality %: insects on treated tile; for Mortality %/time (h) (application): Table 37, concentrations in mg/ml in label
Method: Method: Contact test on non-porous tile measuring 400 cm^2 at a temperature of 28° C. Test duration: up to 72 hours after exposure of the insect to the insecticidal active substance.
(§1) Three tests were performed in parallel, A, B, and C, as follows: • A) Comparative. 1 ml of Composition 2 was applied to the tile. After waiting for the complete evaporation of the solvent, 10 cockroaches were placed on top of the treated tile, starting the test. • B) According to the invention. 1 ml of Composition 8b was distributed on the tile. After waiting for the complete evaporation of the solvent, 1 ml of Composition 2 was added to the same tile. Subsequently, after waiting for the solvent to evaporate, 10 cockroaches were placed on top of the treated tile, starting the test. • C) According to the invention. 1 ml of Composition 8b was distributed on a tile. After waiting for the complete evaporation of the solvent, 10 cockroaches were placed for 30 minutes on top of the treated tile. At the end of the 30 minutes, the cockroaches were transferred to an untreated area.
Method: Contact test on non-porous tile measuring 400 cm^2 at a temperature of 28° C. Test duration: up to 120 hours after exposure of the insect to the insecticidal active substance.
as §1, with “4a” for “2”, “8d” for “8b”, “After” for “Subsequently, after”
Six tests were performed in parallel, A, B, C, D, E and F, as follows: • A) Comparative. 1 ml of Composition 9b was distributed on the tile. After waiting for the complete evaporation of the solvent, 1 ml of Composition 4a was added to the same tile. Subsequently, after waiting for the solvent to evaporate, 10 cockroaches were placed on top of the treated tile, starting the test. • B) Comparative. 1 ml of Composition 9b was distributed on a tile. After waiting for the complete evaporation of the solvent, 10 cockroaches were placed for 30 minutes on top of the treated tile. At the end of the 30 minutes, the cockroaches were transferred to an untreated area. […] 1 ml of Composition 10b was distributed on the tile. After waiting for the complete evaporation of the solvent, 1 ml of Composition 4a was added to the same tile. Subsequently, after waiting for the solvent to evaporate, 10 cockroaches were placed on top of the treated tile, starting the test. • D) Comparative. 1 ml of Composition 10b was distributed on a tile. After waiting for the complete evaporation of the solvent, 10 cockroaches were placed for 30 minutes on top of the treated tile. At the end of the 30 minutes, the cockroaches were transferred to an untreated area. […] 1 ml of Composition 8d was distributed on the tile. After waiting for the complete evaporation of the solvent, 1 ml of Composition 4a was added to the same tile. Subsequently, after waiting for the solvent to evaporate, 10 cockroaches were placed on top of the treated tile, starting the test. • F) According to the invention. 1 ml of Composition 8d was distributed on a tile. After waiting for the complete evaporation of the solvent, 10 cockroaches were placed for 30 minutes on top of the treated tile. At the end of the 30 minutes, the cockroaches were transferred to an untreated area.

Musca domestica L. = assay: Contact test on non-porous tile, Musca domestica; assay type: in vivo; design: Mortality %: concentration or dose not given beside the values; details: for mortality at 680 µg/mL: 0.68 mg/ml; for Mortality %: insects on treated tile
Method: 1 ml of Composition 1 was applied to the tile. […] 1 ml of Composition 8a was distributed on the tile. […] 1 ml of Composition 8a was distributed on a tile. […] At the end of the 30 minutes, the flies were transferred to an untreated area.
1 ml of Composition 3 was applied to the tile. […] 1 ml of Composition 8c was distributed on the tile. […] 1 ml of Composition 8c was distributed on a tile. […] At the end of the 30 minutes, the flies were transferred to an untreated area.
1 ml of Composition 9a was distributed on the tile. […] 1 ml of Composition 9a was distributed on a tile. […] At the end of the 30 minutes, the flies were transferred to an untreated area. […] 1 ml of Composition 10a was distributed on the tile. […] 1 ml of Composition 10a was distributed on a tile. […] At the end of the 30 minutes, the flies were transferred to an untreated area. […] 1 ml of Composition 8c was distributed on the tile. […] 1 ml of Composition 8c was distributed on a tile. […] At the end of the 30 minutes, the flies were transferred to an untreated area.
1 ml of Composition 5a, was distributed on the tile. […] 1 ml of Composition 6a was distributed on the tile. […] 1 ml of Composition 7a was distributed on the tile.
1 ml of Composition 3 was distributed on the tile. […] 1 ml of Composition 9a was distributed on the tile. […] 1 ml of Composition 11a was distributed on a tile. […] 1 ml of Composition 12a was distributed on a tile.
1 ml of Composition 3 was distributed on the tile. […] 1 ml of Composition 17a was distributed on a tile. […] 1 ml of Composition 18a was distributed on a tile. […] Each experiment (A-C) was conducted in duplicate.
1 ml of Composition 23a was distributed on the tile. […] 1 ml of Composition 20a was distributed on a tile. […] Each experiment (A-B) was conducted in duplicate.
1 ml of Composition 3 was distributed on the tile. […] 1 ml of Composition 25a was distributed on a tile. […] Each experiment (A-B) was conducted in duplicate.
1 ml of Composition 23a was distributed on the tile. […] 1 ml of Composition 27a was distributed on a tile. […] Each experiment (A-B) was conducted in duplicate.
1 ml of Composition 26a was distributed on a tile. […] 1 ml of Composition 26b was distributed on a tile. […] 1 ml of Composition 26c was distributed on a tile.
1 ml of Composition 22a was distributed on a tile. […] 1 ml of Composition 22b was distributed on a tile. […] 1 ml of Composition 22c was distributed on a tile.
1 ml of Composition 23a was distributed on the tile. […] 1 ml of Composition 44a was distributed on a tile.
1 ml of Composition 33 was distributed on a tile. […] 1 ml of Composition 33 was distributed on a tile. […] At the end of the 30 minutes, the flies were transferred to an untreated area.
1 ml of Composition 1 was distributed on the tile. […] 1 ml of Composition 34 was distributed on a tile. […] 1 ml of Composition 34 was distributed on a tile. […] At the end of the 30 minutes, the flies were transferred to an untreated area.
1 ml of Composition 3 was distributed on the tile. […] 1 ml of Composition 31a was distributed on a tile. […] 1 ml of Composition 31b was distributed on a tile. […] 1 ml of Composition 31b was distributed on a tile. […] At the end of the 30 minutes, the flies were transferred to an untreated area. […] 1 ml of Composition 38a was distributed on a tile. […] 1 ml of Composition 38a was distributed on a tile. […] At the end of the 30 minutes, the flies were transferred to an untreated area.
G) According to the invention. 1 ml of Composition 40a was distributed on a tile. […] Subsequently, after waiting for the solvent to evaporate, 10 flies were placed on top of the treated til

[1] = Musca domestica, single substance alone, 48 h, read-out: Mortality %/time (h)

CCCCCCCCCCCCOC(C)=O [dodecyl acetate]
synergizing effect on Cypermethrin (Blatta orientalis): excellent-fine synergizing effect

CC1(C)C(C=C(Cl)Cl)C1C(=O)OC(C#N)c1cccc(Oc2ccccc2)c1 (stereo not drawn) [Composition 46b, Cypermethrin]
Mortality % (Blatta orientalis; Example 36, 25° C, 24 h): 8%
Mortality % (Blatta orientalis; Example 36, 25° C, 48 h): 17%
Mortality %/time (h) (application) (Blatta orientalis; 48 h, listed as Cypermethrin (0.10)): 17/48 ^ %

CCCCCCCCCCCCO [Dodecanol]
mortality at 680 µg/mL (Musca domestica L.; [1]): 4%

CCCCC(CC)COC(=O)OCC(CC)CCCC (stereo not drawn) [Composition 17b, Bis(2-ethyl-hexyl)-carbonate]
Mortality %/time (h) (application) (Blatta orientalis; 48 h): 0/48 ^ %

CCCCCCCCCCC(O)CO (stereo not drawn) [1,2-dodecandiol]
mortality at 680 µg/mL (Musca domestica L.; [1]): 0%

CC1(C)C(C=C(Cl)Cl)C1C(=O)OC(C#N)c1cccc(Oc2ccccc2)c1 (stereo not drawn) [Composition 4a, Cypermethrin]
Mortality % (Blatta orientalis; Example 4, 28° C, 24 h): 30%
Mortality % (Blatta orientalis; Example 4, 28° C, 48 h): 35%
Mortality % (Blatta orientalis; Example 4, 28° C, 120 h): 35%
Mortality % (Blatta orientalis; Example 10, 21° C, 24 h): 20%
Mortality % (Blatta orientalis; Example 10, 21° C, 48 h): 35%
Mortality % (Blatta orientalis; Example 11, 21° C, 48 h): 20%
Mortality % (Blatta orientalis; Example 11, 21° C, 72 h): 25%
Mortality % (Blatta orientalis; Example 11, 21° C, 96 h): 33%
Mortality % (Blatta orientalis; Example 13, 21° C, 48 h): 60%
Mortality % (Blatta orientalis; Example 13, 21° C, 72 h): 62%
Mortality % (Blatta orientalis; Example 20, 21° C, 24 h): 5%
Mortality % (Blatta orientalis; Example 20, 21° C, 72 h): 25%
Mortality % (Blatta orientalis; Example 32, 25° C, 24 h): 10%
Mortality % (Blatta orientalis; Example 32, 25° C, 48 h): 35%
Mortality % (Blatta orientalis; Example 32, 25° C, 72 h): 45%
Mortality %/time (h) (application) (Blatta orientalis; 48 h, listed as Cypermethrin (0.20)): 35/48 ^ % and 20/48 ^ %

CC1(C)C(C=C(Cl)Cl)C1C(=O)OC(C#N)c1cccc(Oc2ccccc2)c1 (stereo not drawn) [Cypermethrin]
mortality at 230 µg/mL (Musca domestica L.; Musca domestica, single substance alone, 0.23 mg/ml, 48 h, read-out: Mortality %/time (h)): 10%
mortality at 450 µg/mL (Musca domestica L.; Musca domestica, single substance alone, 0.45 mg/ml, 48 h, read-out: Mortality %/time (h)): 16%

COP(=O)(OC)SCn1c(=O)oc2cc(Cl)cnc21 [Composition 23a, Azamethiphos, reference compound]
Mortality % (Musca domestica L.; Example 14, 21° C, 48 h): 23%
Mortality % (Musca domestica L.; Example 18, 21° C, 24 h): 23%
Mortality % (Musca domestica L.; Example 24, 25° C, 24 h): 10%
Mortality % (Musca domestica L.; Example 30, 25° C, 24 h): 10%
Mortality % (Musca domestica L.; Example 30, 25° C, 48 h): 23%

COP(=O)(OC)SCn1c(=O)oc2cc(Cl)cnc21 [Azamethiphos]
mortality at 6900 µg/mL (Musca domestica L.; Musca domestica, 48 h, read-out: Mortality %/time (h)): 23%

OCCCCCCCCO [1,8-octandiol]
mortality at 680 µg/mL (Musca domestica L.; [1]): 0%

CCCCCCCCOC(C)=O [n-Octyl acetate]
synergizing effect on Cypermethrin (Blatta orientalis): excellent-fine synergizing effect

CCCCCCC(O)CO (stereo not drawn) [1,2-octandiol]
mortality at 680 µg/mL (Musca domestica L.; [1]): 0%

Spinosad [Composition 43, reference compound]
Mortality % (Musca domestica L.; Example 19, 25° C, 24 h): 27%
Mortality % (Musca domestica L.; Example 23, 25° C, 24 h): 27%
Mortality % (Musca domestica L.; Example 27, 25° C, 24 h): 27%

CC1(C)C(C=C(Cl)Cl)C1C(=O)OC(C#N)c1cccc(Oc2ccccc2)c1 (stereo not drawn) [Composition 3, Cypermethrin, reference compound]
Mortality % (Musca domestica L.; Example 3, 26° C, 24 h): 10%
Mortality % (Musca domestica L.; Example 3, 26° C, 48 h): 20%
Mortality % (Musca domestica L.; Example 9, 21° C, 24 h): 5%
Mortality % (Musca domestica L.; Example 9, 21° C, 48 h): 16%
Mortality % (Musca domestica L.; Example 12, 21° C, 24 h): 5%
Mortality % (Musca domestica L.; Example 12, 21° C, 48 h): 16%
Mortality % (Musca domestica L.; Example 17, 21° C, 48 h): 16%
Mortality % (Musca domestica L.; Example 29, 25° C, 24 h): 10%
Mortality % (Musca domestica L.; Example 29, 25° C, 48 h): 16%

CC1(C)C(C=C(Cl)Cl)C1C(=O)OC(C#N)c1cccc(Oc2ccccc2)c1 (stereo not drawn) [Composition 46a, Cypermethrin, reference compound]
Mortality % (Musca domestica L.; Example 35, 25° C, 24 h): 5%
Mortality % (Musca domestica L.; Example 35, 25° C, 48 h): 10%
